From patent publication US20170253601A1, “Substituted Pyrrolidine Compounds” (EPIZYME, INC., priority 2014, published 2017)

These compounds were tested against T1, SMYD2 (Homo sapiens, UniProt Q9NRG4) (assay: SMYD2 Biochemical Assay (3H-SAM, biotinylated peptide substrate, Flashplate)). Details: IC50 values are an average of n = 1 to n = 50; read-out: SMYD2 Biochem IC50 (μM)*.
T1 construct: Full length SMYD2 (NP 064582.2) was cloned; His6 (N, cleaved yes); FLAG (N); made in house; host or cells: Sf9 insect cells
T1 sequence (Q9NRG4 whole entry): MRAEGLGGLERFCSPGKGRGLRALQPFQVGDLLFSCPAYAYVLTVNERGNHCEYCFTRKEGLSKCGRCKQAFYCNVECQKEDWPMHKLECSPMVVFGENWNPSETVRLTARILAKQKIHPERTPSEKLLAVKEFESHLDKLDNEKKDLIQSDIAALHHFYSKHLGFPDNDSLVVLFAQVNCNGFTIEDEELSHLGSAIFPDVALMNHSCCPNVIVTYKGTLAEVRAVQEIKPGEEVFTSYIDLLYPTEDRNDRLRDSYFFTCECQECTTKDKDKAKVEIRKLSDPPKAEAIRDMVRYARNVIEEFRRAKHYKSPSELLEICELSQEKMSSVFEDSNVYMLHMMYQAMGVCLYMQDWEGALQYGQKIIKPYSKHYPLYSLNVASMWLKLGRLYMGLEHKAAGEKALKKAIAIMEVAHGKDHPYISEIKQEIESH
How it was run: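 Full-length His/FLAG-tagged SMYD2 expressed in Sf9 cells with tag cleaved, 1.5 nM, pre-incubated 30 min at room temperature with compound, then 10 nM 3H-SAM and 60 nM biotinylated peptide added. Buffer 20 mM Bicine pH 7.6, 1 mM TCEP, 0.005% BSG, 0.002% Tween20, 2% DMSO. Stopped with 600 uM cold SAM; 3H-peptide captured on streptavidin Flashplate; IC50 by curve fit.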

First: CC(C)N1C[C@@H](NC(=O)c2cc(C3CC3)on2)C[C@H]1COCC#CC1CCCCC1 (racemic) [compound 239, (±)-cis-N-[5-{[(3-cyclo-hexylprop-2-yn-1-yl)oxy]methyl}-1-(propan-2-yl)pyrrolidin-3-yl]-5-cyclopropyl-1,2-oxazole-3-carboxamide]
Second: CC(C)N1C[C@H](C)[C@H](NC(=O)c2cc(C3CCC3)on2)C1 (racemic) [compound 248, (±)-cis-5-cyclobutyl-N-[4-methyl-1-(propan-2-yl)pyrrolidin-3-yl]-1,2-oxazole-3-carboxamide]
The IC50 of the first is higher: > 50 µM for the first, 10.5 µM for the second. The second is the more potent here.

First: CC(C)N1C[C@@H](NC(=O)c2cc(C3CC3)on2)[C@@](C)(O)C1 (racemic) [compound 241, (±)-cis-5-cyclopropyl-N-[4-hydroxy-4-methyl-1-(propan-2-yl)pyrrolidin-3-yl]-1,2-oxazole-3-carboxamide]
Second: CC(C)N1C[C@@H](C)[C@H](NC(=O)c2cc(C3CCC3)on2)C1 (racemic) [compound 249, (±)-trans-5-cyclobutyl-N-[4-methyl-1-(propan-2-yl)pyrrolidin-3-yl]-1,2-oxazole-3-carboxamide]
The IC50 of the first is lower: 24.8 µM for the first, > 50 µM for the second. The first is the more potent here.

CC(C)N1C[C@@H](C)[C@H](NC(=O)c2cc(C3(C)CC3)on2)C1 (racemic) [compound 250, (±)-trans-N-[4-methyl-1-(propan-2-yl)pyrrolidin-3-yl]-5-(1-methylcyclo-propyl)-1,2-oxazole-3-carboxamide] and CC(C)N1C[C@@H](C)[C@H](NC(=O)c2cc(C3(C)CCC3)on2)C1 (racemic) [compound 259, (±)-trans-N-[4-methyl-1-(propan-2-yl)pyrrolidin-3-yl]-5-(1-methylcyclobutyl)-1,2-oxazole-3-carboxamide] cannot be ordered by IC50: > 50 µM for the first, > 50 µM for the second.

CN1C[C@@H](C(F)(F)F)[C@H](NC(=O)c2cc(C3CC3)on2)C1 (racemic) [compound 251, (±)-trans-5-cyclopropyl-N-[1-methyl-4-(trifluoro-methyl)pyrrolidin-3-yl]-1,2-oxazole-3-carboxamide] and CC(C)N1C[C@@H](C(F)(F)F)[C@H](NC(=O)c2cc(C3CC3)on2)C1 (racemic) [compound 252, (±)-trans-5-cyclopropyl-N-[1-(propan-2-yl)-4-(trifluoromethyl)pyrrolidin-3-yl]-1,2-oxazole-3-carboxamide] cannot be ordered by IC50: > 50 µM for the first, > 50 µM for the second.

Compared with C[C@@H]1CN(CCF)C[C@H]1NC(=O)c1cc(C2CC2)on1 (racemic) [compound 253, (±)-trans-5-cyclopropyl-N-[1-(2-fluoroethyl)-4-methylpyrrolidin-3-yl]-1,2-oxazole-3-carboxamide], C[C@H]1CN(CCF)C[C@H]1NC(=O)c1cc(C2CC2)on1 (racemic) [compound 254, (±)-cis-5-cyclopropyl-N-[1-(2-fluoroethyl)-4-methylpyrrolidin-3-yl]-1,2-oxazole-3-carboxamide] is lower in IC50: > 50 µM for the first, 5.72 µM for the second.

C[C@@H]1CN(CC2CCN(C(=O)OC(C)(C)C)CC2)C[C@H]1NC(=O)c1cc(C2CC2)on1 (racemic) [compound 255, (±)-trans-tert-butyl 4-{[3-(5-cyclopropyl-1,2-oxazole-3-amido)-4-methylpyrrolidin-1-yl]methyl}piperidine-1-carboxylate] and C[C@@H]1CN(CC2CCNCC2)C[C@H]1NC(=O)c1cc(C2CC2)on1 (racemic) [compound 256, (±)-trans-5-cyclopropyl-N-[4-methyl-1-(piperidin-4-ylmethyl)pyrrolidin-3-yl]-1,2-oxazole-3-carboxamide] cannot be ordered by IC50: > 50 µM for the first, > 50 µM for the second.

CN1C[C@H](NC(=O)c2cc(C3CC3)on2)[C@H](C(C)(C)C)C1 (racemic) [compound 257, (±)-cis-N-[4-tert-butyl-1-methylpyrrolidin-3-yl]-5-cyclopropyl-1,2-oxazole-3-carboxamide] and CC(C)N1C[C@H](NC(=O)c2cc(C3CC3)on2)[C@H](C(C)(C)C)C1 (racemic) [compound 258, (±)-cis-N-[4-tert-butyl-1-(propan-2-yl)pyrrolidin-3-yl]-5-cyclopropyl-1,2-oxazole-3-carboxamide] cannot be ordered by IC50: > 50 µM for the first, > 50 µM for the second.
